Key:
HyMurG [1] = target: T1, HyMurG (Hydrogenivirga sp. 128-5-R1-1, UniProt A8US35); experiment: UV-Vis-based MurG assay; assay type: biochemical; settings: 50–100 μM
HyMurG [2] = target: T1, HyMurG; experiment: HPLC-based MurG assay, dose-response, HyMurG; assay type: biochemical; settings: read-out: IC50 HyMurG; HPLC-based method; average of two-three experiments
MsmegMurG = MsmegMurG (Mycolicibacterium smegmatis, UniProt A0R016); experiment: biochemical; set-up: species or system Mycobacterium smegmatis; settings: read-out: IC50 MsmegMurG; HPLC-based method; average of two-three experiments
MsmegMraY = MsmegMraY (Mycolicibacterium smegmatis, UniProt A0R019); experiment: biochemical; assay type: biochemical, Mycobacterium smegmatis
M. smegmatis (ATCC607) = experiment: MIC determination, resazurin, M. smegmatis; assay type: cell-based, Mycobacterium smegmatis; settings: 7H9 with 0.5% tween 80, 3 days at 37 °C
M. tuberculosis (H37Rv) = experiment: MIC determination, M. tuberculosis; assay type: cell-based, Mycobacterium tuberculosis; settings: 7H9 containing OADC; 14 days
Vero cell = experiment: Cytotoxicity against Vero cells

MsmegMraY, sequence (A0R019 whole entry): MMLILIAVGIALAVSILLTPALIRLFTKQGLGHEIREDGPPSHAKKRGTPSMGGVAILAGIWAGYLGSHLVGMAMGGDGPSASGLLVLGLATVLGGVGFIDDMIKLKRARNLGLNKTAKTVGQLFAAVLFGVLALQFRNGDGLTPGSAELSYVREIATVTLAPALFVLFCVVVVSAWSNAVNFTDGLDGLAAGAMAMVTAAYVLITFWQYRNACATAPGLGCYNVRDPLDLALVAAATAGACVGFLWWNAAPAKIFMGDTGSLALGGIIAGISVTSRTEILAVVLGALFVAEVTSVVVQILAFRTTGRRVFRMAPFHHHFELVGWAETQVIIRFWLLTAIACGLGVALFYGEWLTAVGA
T1 sequence (A8US35 1-350): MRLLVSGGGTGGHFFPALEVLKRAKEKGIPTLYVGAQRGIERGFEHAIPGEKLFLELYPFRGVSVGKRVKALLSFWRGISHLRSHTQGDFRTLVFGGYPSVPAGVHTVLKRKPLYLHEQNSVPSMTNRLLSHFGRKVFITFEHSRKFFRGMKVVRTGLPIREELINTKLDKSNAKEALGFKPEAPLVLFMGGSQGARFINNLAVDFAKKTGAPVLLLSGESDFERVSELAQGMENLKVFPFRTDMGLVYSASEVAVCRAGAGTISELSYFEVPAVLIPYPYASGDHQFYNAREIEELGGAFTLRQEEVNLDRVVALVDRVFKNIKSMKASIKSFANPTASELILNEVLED
MsmegMurG, sequence (A0R016 whole entry): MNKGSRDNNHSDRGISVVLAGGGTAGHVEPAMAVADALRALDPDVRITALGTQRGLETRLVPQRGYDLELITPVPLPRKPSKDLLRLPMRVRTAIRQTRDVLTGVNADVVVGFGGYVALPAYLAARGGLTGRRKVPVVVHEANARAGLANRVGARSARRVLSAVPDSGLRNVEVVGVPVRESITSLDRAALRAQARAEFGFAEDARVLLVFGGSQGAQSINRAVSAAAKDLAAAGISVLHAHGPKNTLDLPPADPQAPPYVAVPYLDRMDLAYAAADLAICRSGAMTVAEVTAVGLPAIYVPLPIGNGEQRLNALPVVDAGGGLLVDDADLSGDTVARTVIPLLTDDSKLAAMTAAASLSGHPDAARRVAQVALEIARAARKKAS

Substance: tunicamycin
- Inhibition of MurG function / lipid II formation (HyMurG [1]): did not inhibit
- IC50 (HyMurG [2]): > 100 µM
- IC50 (MsmegMurG): > 100 µM
- MurX activity after addition of inhibitor (MsmegMraY; 50 μM, P-60, protocol B): terminated completely
- IC50 (MsmegMraY; read-out: IC50 MsmegMraY, HPLC-based method, average of two-three experiments): 2.9 µM
- M. smegmatis (ATCC607) MIC (M. smegmatis (ATCC607)): 6.25 to 12.5 mg/L
- M. tuberculosis (H37Rv) MIC (M. tuberculosis (H37Rv)): 12.5 mg/L
- Vero cell cytotoxicity IC50 (Vero cell): 1.56 mg/L

Reference: PMC7286788 (ACS infectious diseases, 2019)
